The values below come from patent publication US20090036474A1, “Quinazoline derivatives for use against cancer” (priority 2004, published 2009).

For one assay, the target named is T1, PDGFRβ tyrosine kinase (Homo sapiens, UniProt P09619).
T1 construct: PDGFRα, PDGFRβ and KDR receptor cytoplasmic domains, obtained by expression of recombinant protein in insect cells; purchased Upstate Biotechnology Inc. 14-463; host or cells: Sf9 insect cells
The assay is described as follows: In vitro enzyme assay (ELISA), Test (a), PDGFRβ. In kind it is biochemical. Particulars: ATP 2.8 μM, read-out: IC50 versus PDGFRβ tyrosine kinase. As for the experimental part: (§1) The ability of test compounds to inhibit the phosphorylation of a tyrosine containing polypeptide substrate by the tyrosine kinase enzymes PDGFRα, PDGFRβ and KDR was assessed using conventional ELISA assays. DNA encoding the PDGFRα, PDGFRβ or KDR receptor cytoplasmic domains may be obtained by total gene synthesis (International Biotechnology Lab., 1987, 5(3), 19-25) or by cloning. The DNA fragments may be expressed in a suitable expression system to obtain polypeptide with tyrosine kinase activity. For example, PDGFRα, PDGFRβ and KDR receptor cytoplasmic domains, obtained by expression of recombinant protein in insect cells, can be shown to display intrinsic tyrosine kinase activity. In the case of the VEGF receptor KDR (Genbank Accession No. L04947), a DNA fragment encoding most of the cytoplasmic domain, commencing with methionine 806 and including the termination codon may be cloned into a baculovirus transplacement vector [for example pAcYM1 (see The Baculovirus Expression System: A Laboratory Guide, L. A. King and R. D. Possee, Chapman and Hall, 1992) or pAc360 or pBlueBacHis (available from Invitrogen Corporation)]. This recombinant construct may be co-transfected into insect cells [for example Spodoptera frugiperda 21(Sf21) or Spodoptera frugiperda 9(Sf9)] with viral DNA (for example Pharmingen BaculoGold) to prepare recombinant baculovirus. […]
Background: ELISA stands for enzyme-linked immunosorbent assay.

For the next assay, the target named is T2, KDR tyrosine kinase (Homo sapiens, UniProt P35968).
T2 construct: a DNA fragment encoding most of the cytoplasmic domain, commencing with methionine 806 and including the termination codon; made in house; host or cells: Sf9 insect cells (recombinant baculovirus)
T2 sequence (P35968 786-1356 limits assumed): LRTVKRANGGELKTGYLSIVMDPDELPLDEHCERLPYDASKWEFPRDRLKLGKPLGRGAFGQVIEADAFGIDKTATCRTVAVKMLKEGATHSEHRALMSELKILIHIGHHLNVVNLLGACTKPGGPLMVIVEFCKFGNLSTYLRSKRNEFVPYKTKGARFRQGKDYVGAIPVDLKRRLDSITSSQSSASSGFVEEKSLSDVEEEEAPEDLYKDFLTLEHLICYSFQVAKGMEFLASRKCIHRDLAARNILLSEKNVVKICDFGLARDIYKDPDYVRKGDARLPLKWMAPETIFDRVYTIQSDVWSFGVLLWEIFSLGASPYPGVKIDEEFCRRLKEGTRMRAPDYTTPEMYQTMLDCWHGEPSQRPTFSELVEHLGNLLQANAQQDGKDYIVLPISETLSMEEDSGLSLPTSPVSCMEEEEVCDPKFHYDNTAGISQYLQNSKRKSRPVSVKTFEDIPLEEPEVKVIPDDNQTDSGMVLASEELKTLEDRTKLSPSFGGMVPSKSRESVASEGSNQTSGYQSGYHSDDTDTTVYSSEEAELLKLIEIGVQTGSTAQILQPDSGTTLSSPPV
As to the kind of experiment: In vitro enzyme assay (ELISA), Test (a), KDR. It is filed as biochemical. Conditions: ATP 8 μM, read-out: IC50 versus KDR tyrosine kinase. As for the experimental part:
The ability of test compounds to inhibit the phosphorylation of a tyrosine containing polypeptide substrate by the tyrosine kinase enzymes PDGFRα, PDGFRβ and KDR was assessed using conventional ELISA assays. DNA encoding the PDGFRα, PDGFRβ or KDR receptor cytoplasmic domains may be obtained by total gene synthesis (International Biotechnology Lab., 1987, 5(3), 19-25) or by cloning. The DNA fragments may be expressed in a suitable expression system to obtain polypeptide with tyrosine kinase activity. For example, PDGFRα, PDGFRβ and KDR receptor cytoplasmic domains, obtained by expression of recombinant protein in insect cells, can be shown to display intrinsic tyrosine kinase activity. In the case of the VEGF receptor KDR (Genbank Accession No. L04947), a DNA fragment encoding most of the cytoplasmic domain, commencing with methionine 806 and including the termination codon may be cloned into a baculovirus transplacement vector [for example pAcYM1 (see The Baculovirus Expression System: A Laboratory Guide, L. A. King and R. D. Possee, Chapman and Hall, 1992) or pAc360 or pBlueBacHis (available from Invitrogen Corporation)]. This recombinant construct may be co-transfected into insect cells [for example Spodoptera frugiperda 21(Sf21) or Spodoptera frugiperda 9(Sf9)] with viral DNA (for example Pharmingen BaculoGold) to prepare recombinant baculovirus. Details of the methods for the assembly of recombinant DNA molecules and the preparation and use of recombinant baculovirus can be found in standard texts, for example Sambrook et al., 1989, Molecular cloning—A Laboratory Manual, 2nd edition, Cold Spring Harbour Laboratory Press and O'Reilly et al., 1992, Baculovirus Expression Vectors—A Laboratory Manual, W. H. Freeman and Co, New York).
For expression, Sf9 cells were infected with plaque-pure KDR recombinant virus and harvested 48 hours later. […]

A further assay deals with T3, PDGFRα tyrosine kinase (Homo sapiens, UniProt P16234).
T3 construct: PDGFRα, PDGFRβ and KDR receptor cytoplasmic domains, obtained by expression of recombinant protein in insect cells; purchased Upstate Biotechnology Inc. 14-467; host or cells: Sf9 insect cells
T3 sequence (P16234 550-1089 limits assumed): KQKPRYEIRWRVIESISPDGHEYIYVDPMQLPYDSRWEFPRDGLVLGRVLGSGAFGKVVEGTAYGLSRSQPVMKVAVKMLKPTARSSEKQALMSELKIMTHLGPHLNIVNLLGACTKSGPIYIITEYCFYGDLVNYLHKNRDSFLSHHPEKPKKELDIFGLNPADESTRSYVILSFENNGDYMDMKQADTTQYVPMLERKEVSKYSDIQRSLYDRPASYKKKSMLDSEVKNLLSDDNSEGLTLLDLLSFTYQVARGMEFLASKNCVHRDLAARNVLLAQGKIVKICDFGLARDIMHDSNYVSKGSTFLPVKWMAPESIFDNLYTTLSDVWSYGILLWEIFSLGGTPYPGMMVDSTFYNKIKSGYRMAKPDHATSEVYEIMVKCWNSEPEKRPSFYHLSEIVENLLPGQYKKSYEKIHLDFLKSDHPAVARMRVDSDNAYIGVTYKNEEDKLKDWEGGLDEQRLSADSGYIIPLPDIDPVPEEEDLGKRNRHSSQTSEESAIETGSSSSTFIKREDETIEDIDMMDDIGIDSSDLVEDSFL
The assay is described as follows: In vitro enzyme assay (ELISA), Test (a), PDGFRα. Conditions: ATP 14 μM, read-out: IC50 versus PDGFRα tyrosine kinase. In kind it is biochemical. Here is the method:
as §1

The target in the next assay is T4, phospho-Tyr751 PDGFRβ (Homo sapiens, UniProt P09619).
T4 construct: phosphorylation of PDGFR expressed on MG63 osteosarcoma cells; endogenous in cells; host or cells: MG63 osteosarcoma cells
T4 sequence (P09619 33-1106): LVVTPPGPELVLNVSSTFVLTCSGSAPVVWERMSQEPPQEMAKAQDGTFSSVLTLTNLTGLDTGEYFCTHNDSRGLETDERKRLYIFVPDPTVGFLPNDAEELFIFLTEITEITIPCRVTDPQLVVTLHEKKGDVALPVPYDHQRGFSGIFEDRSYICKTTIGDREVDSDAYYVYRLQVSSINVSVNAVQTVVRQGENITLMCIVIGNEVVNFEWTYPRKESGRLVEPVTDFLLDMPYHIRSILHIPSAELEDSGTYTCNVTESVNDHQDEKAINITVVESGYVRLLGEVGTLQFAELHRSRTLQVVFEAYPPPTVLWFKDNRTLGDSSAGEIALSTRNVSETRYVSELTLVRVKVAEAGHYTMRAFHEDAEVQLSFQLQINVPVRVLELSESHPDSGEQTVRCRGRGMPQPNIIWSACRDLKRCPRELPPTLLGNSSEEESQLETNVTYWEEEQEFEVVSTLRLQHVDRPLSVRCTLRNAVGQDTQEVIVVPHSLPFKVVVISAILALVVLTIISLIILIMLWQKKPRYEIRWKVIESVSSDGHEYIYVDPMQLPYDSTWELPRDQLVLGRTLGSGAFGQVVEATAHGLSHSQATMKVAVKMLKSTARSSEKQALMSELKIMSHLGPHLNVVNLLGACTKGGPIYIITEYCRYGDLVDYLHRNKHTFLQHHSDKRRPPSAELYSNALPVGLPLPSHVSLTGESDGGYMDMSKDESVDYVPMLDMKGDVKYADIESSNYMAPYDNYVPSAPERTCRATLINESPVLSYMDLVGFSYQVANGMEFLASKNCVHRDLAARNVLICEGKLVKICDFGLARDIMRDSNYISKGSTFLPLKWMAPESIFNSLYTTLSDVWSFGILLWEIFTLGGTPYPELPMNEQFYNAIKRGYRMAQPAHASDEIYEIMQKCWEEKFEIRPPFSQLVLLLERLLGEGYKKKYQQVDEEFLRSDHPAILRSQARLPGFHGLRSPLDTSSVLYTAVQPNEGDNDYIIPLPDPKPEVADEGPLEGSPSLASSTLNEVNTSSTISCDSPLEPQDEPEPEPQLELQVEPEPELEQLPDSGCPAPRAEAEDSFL
As to the kind of experiment: In vitro phospho-Tyr751 PDGFRβ ELISA assay in MG63 osteosarcoma cells, Test (b). It is filed as cell-based. Conditions: MG63 cells stimulated with PDGFBB, read-out: IC50 versus phospho-Tyr751 PDGFRβ. As for the experimental part:
This assay uses a conventional ELISA method to determine the ability of test compounds to inhibit phosphorylation of tyrosine in PDGFRβ.
An MG63 osteosarcoma cell line [American Type Culture Collection (ATCC) CCL 1427] was routinely maintained at 37° C. with 7.5% CO2 in Dulbecco's modified Eagle's growth medium (DMEM; Sigma-Aldrich; Catalogue No. D6546) containing 10% foetal calf serum (FCS; Sigma-Aldrich; Catalogue No. F7524) and 2 mM L-glutamine (Invitrogen Ltd., Paisley, UK; Catalogue No. 25030-024).
For the assay, the cells were detached from the culture flask using a trypsin/ethylenediaminetetraacetic acid (EDTA) mixture (Invitrogen Ltd.; Catalogue No. 15400-054) and resuspended in test media comprising DMEM without phenol red (Sigma-1-Aldrich; Catalogue No. D5921) containing 1% charcoal-stripped-foetal calf serum (FCS) (Sigma-Aldrich; Catalogue No. F7524, stripped by incubation with dextran-coated activated charcoal at 55° C. for 30 minutes with continuous stirring followed by removal of the charcoal by centrifugation and filter sterilisation) and 2 mM L-glutamine (Invitrogen Ltd., Catalogue No. 25030-024) to give 6×10^4 cells per ml. […]

Assay [1] relates to dermatofibrosarcoma protruberans cell cultures. Conditions: Cancer Research 2001; cited from earlier work.
The test system of assay [2] is human glioblastoma lines U343 and U87. Conditions: U343 and U87 injected into the brains of nude mice; Cancer Research 2000; cited from earlier work.
A further assay concerns PDGF receptor kinase. Conditions: Nature Reviews 2002; Cancer Research 1996; cited from earlier work.

As a reminder, the IC50 is the concentration needed to halve the response being measured.

T1 sequence (P09619 554-1106 limits assumed): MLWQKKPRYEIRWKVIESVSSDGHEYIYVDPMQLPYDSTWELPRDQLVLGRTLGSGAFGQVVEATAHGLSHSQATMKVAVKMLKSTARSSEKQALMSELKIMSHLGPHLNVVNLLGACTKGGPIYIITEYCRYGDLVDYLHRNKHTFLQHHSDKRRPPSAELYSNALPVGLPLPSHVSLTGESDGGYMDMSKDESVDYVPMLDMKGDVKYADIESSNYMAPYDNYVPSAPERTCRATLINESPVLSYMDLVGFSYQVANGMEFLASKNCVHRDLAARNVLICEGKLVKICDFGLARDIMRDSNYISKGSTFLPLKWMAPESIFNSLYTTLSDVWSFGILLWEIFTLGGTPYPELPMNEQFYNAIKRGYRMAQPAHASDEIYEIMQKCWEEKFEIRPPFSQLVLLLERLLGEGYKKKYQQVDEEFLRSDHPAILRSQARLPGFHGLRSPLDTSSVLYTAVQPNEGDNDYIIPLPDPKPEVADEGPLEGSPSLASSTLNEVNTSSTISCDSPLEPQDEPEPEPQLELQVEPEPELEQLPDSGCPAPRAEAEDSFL

As for `COc1cc2ncnc(Oc3cnn(CC(=O)Nc4ccc5c(c4)OCO5)c3)c2cc1OC` [Example 1, N-(3,4-methylenedioxyphenyl)-2-[4-(6,7-dimethoxyquinazolin-4-yloxy)pyrazol-1-yl]acetamide], the IC50 was ~0.5 nM on PDGFRβ tyrosine kinase, ~30 nM on KDR tyrosine kinase and ~7 nM on PDGFRα tyrosine kinase.
As for `COc1cc2ncnc(Oc3cnn(CC(=O)Nc4ccc5c(c4)NCC5)c3)c2cc1OC` [Example 40, N-(6-indolinyl)-2-[4-(6,7-dimethoxyquinazolin-4-yloxy)pyrazol-1-yl]acetamide], the IC50 on KDR tyrosine kinase is ~2 nM; on phospho-Tyr751 PDGFRβ, ~1 nM.
Take `Cc1ccc(NC(=O)c2ccc(CN3CCN(C)CC3)cc2)cc1Nc1nccc(-c2cccnc2)n1` [imatinib]: in assay [1], the “in vivo growth of dermatofibrosarcoma protruberans cell cultures” value is listed as “inhibits the in vivo growth”. Moreover, the “growth of glioblastoma tumours” value in assay [2] is “inhibits the growth”. Moreover, the “inhibition of PDGF receptor kinase activity” value in the assay on PDGF receptor kinase is given as “inhibit PDGF receptor kinase activity”.
